Columns and labels:
VCaP cells = assay: Cellular growth inhibition assay for VCaP cells, CellTiter-Glo; type: cell-based, human; conditions: 72 hours
How it was run: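 GI50 values come from four-parameter curve fits of luminescence data normalized to a zero baseline. Compound, in medium with 0.5% DMSO, was added one day after plating and left for 72 h before CellTiter-Glo 2.0 addition.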

[1] = tested on: T-Rex 293 cell line SC3 cells lacking increased expression of androgen receptor protein; assay: Cellular growth inhibition, T-Rex 293 SC3 cells without doxycycline (no increased androgen receptor expression), CellTiter-Glo; type: cell-based; conditions: T-Rex 293 SC3 cells not exposed to doxycycline (no increased androgen receptor expression), 72 hours
How it was run: (§1)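 Growth inhibition is measured in an inducible AR-expressing T-Rex 293 clone, SC3, cultured with or without 10 ng/mL doxycycline in hormone-depleted medium. Test compounds are applied for 72 hours. GI50 values derive from CellTiter-Glo 2.0 signal fitted by four-parameter regression.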

[2] = tested on: T-Rex 293 cell line SC3 cells having increased expression of androgen receptor protein due to exposure to doxycycline; assay: Cellular growth inhibition, T-Rex 293 SC3 cells with doxycycline (increased androgen receptor expression), CellTiter-Glo; type: cell-based; conditions: T-Rex 293 SC3 cells with 10 ng/mL doxycycline (increased androgen receptor expression), 72 hours, CellTiter-Glo 2.0
How it was run: as §1

[3] = target: T1, progesterone receptor ligand binding domain (GST-tagged PR LBD) (Homo sapiens, UniProt P06401); assay: FP Assay for Binding Affinity to Progesterone Receptor (PolarScreen Progesterone Receptor Competitor Assay Kit); conditions: fluorescence polarization, Fluormone tracer, 2 hours at room temperature
T1 construct: purchased Life Technologies A15905 or a15906
T1 sequence (P06401 679-913 limits assumed): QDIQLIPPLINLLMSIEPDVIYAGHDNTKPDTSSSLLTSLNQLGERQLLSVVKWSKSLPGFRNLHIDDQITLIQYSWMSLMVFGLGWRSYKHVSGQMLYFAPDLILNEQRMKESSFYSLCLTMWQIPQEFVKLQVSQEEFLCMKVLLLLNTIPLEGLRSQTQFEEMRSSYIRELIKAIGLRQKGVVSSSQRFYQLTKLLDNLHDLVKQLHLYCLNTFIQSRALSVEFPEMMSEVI
Experimental: Exemplary compounds were tested for ability to bind to the progesterone receptor ligand binding domain (LBD).
Compounds were tested using the PolarScreen™ Progesterone Receptor Competitor Assay Kit (Life Technologies Cat #A15905 or a15906), as per the manufacturer's instructions. Briefly, GST-tagged PR LBD, Fluormone tracer, and compound were mixed and incubated for 2 hours at room temperature in the dark. Following incubation, the plates were spun at 3000×g for 30 seconds, then sealed with an optical adhesive cover, and fluorescence polarization was measured using appropriate excitation and emission filters with an EnVision Plate Reader (Perkin Elmer). Compound concentration vs. mP value were plotted in Prism (GraphPad). A four-parameter non-linear regression curve fit was applied to dose-response data to determine the half-maximal inhibitory concentration (IC50) for each test compound.

T47D cells = assay: Cellular Growth Inhibition Assay for T47D Cells (CellTiter-Glo); type: cell-based, human; conditions: 72 hours
How it was run: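 GI50 values derive from four-parameter regression of CellTiter-Glo 2.0 luminescence, using zero luminescence as baseline. Human breast cancer T47D cells (3000/well; DMEM, 10% FBS, 0.2 units/mL insulin) were exposed for 72 h to compound dilutions at 0.5% DMSO, with dosing starting 24 h after seeding.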

[4] = tested on: T-Rex 293 cell line SC cells having increased expression of progesterone receptor isoform B protein; assay: Cellular growth inhibition assay, T-Rex 293 SC cells exposed to doxycycline (increased progesterone receptor isoform B expression), CellTiter-Glo; type: cell-based; conditions: T-Rex 293 SC cells with 10 ng/mL doxycycline (increased PR isoform B), 72 hours
Experimental: (§2) The SC cells were seeded on poly-D-lysine coated, black clear-bottom 384-well plates at 2500/well, in 25 μL Phenol Red Free Dulbecco's Modified Eagle Medium (DMEM) supplemented with 10% w/w charcoal-dextran treated fetal bovine serum (FBS) and 1% w/w pen-strep, with or without 10 ng/mL doxycycline. Pen-Strep is a commercially available mixture of penicillin G and streptomycin, which is used in mammalian cell culture media to prevent bacterial contamination. Phenol Red Free Dulbecco's Modified Eagle Medium (DMEM) supplemented with 10% w/w charcoal-dextran treated fetal bovine serum (FBS) and 1% w/w pen-strep, with or without 10 ng/mL doxycycline is herein referred to as Treatment Medium. Following seeding of cells in the plates, the plates were spun at 300×g for 30 seconds, then equilibrated to room temperature for 30 minutes, and then deposited in a humidified tissue culture incubator maintained at 37° C. with 5% CO2.
(§3) At 24 hours after seeding of the cells, dilutions of test compound were prepared in DMSO and dissolved in Treatment Medium, to achieve a final DMSO concentration of 0.5% w/w, thereby providing the Test Compound Solution. A 25 μL aliquot of the Test Compound Solution was added to cells in the well plates. An equal volume of a solution containing DMSO and Treatment Medium was used as a negative control. Following treatment of cells with Test Compound Solution or said equal volume of a solution containing DMSO and Treatment Medium, the plates were spun at 300×g for 30 seconds, and then left in an incubator for 72 hours.
(§4) At the end of the treatment duration, cell viability was quantified with CellTiter-Glo 2.0 reagent (Promega Cat #G9243). For this purpose, plates were equilibrated to room temperature for 30 minutes, and then 25 μL of CellTiter-Glo 2.0 reagent was added to cells in the plate wells. Plates were then agitated on a shaker for two minutes at 500 rpm and subsequently incubated at room temperature for 10 minutes. Following incubation, the plates were spun at 3000×g for 30 seconds, then sealed with an optical adhesive cover, and luminescence readings were measured with an EnVision Plate Reader (Perkin Elmer).
(§5) Data was normalized using zero luminescence for baseline. A four-parameter non-linear regression curve fit was applied to dose-response data in GraphPad Prism data analysis software to determine the half-maximal growth inhibitory concentration (GI50) for each test compound.

[5] = tested on: T-Rex 293 cell line SC cells lacking increased expression of progesterone receptor isoform B protein; assay: Cellular growth inhibition assay, T-Rex 293 SC cells not exposed to doxycycline (no increased progesterone receptor isoform B expression), CellTiter-Glo; type: cell-based; conditions: T-Rex 293 SC cells without doxycycline (no increased PR isoform B), 72 hours
Experimental: as §2, §3, §4, §5

| GI50 (VCaP cells; Homo sapiens) [nM] | IC50 [3] [nM] | GI50 (T47D cells; Homo sapiens) [nM] | GI50 (VCaP cells) [nM] | GI50 (T47D cells) [nM] | Structure (SMILES) | GI50 [1] [nM] | GI50 [2] [nM] | GI50 [4] [nM] | GI50 [5] [nM] |
| --- | --- | --- | --- | --- | --- | --- | --- | --- | --- |
| < 500 | 500 to 2500 | 500 to 1500 | – | – | Cn1cc(-c2cc(C(C)(C)O)ccc2Oc2cccc(OCCN3CCC34CN(c3ncc(C(=O)N[C@H]5C(C)(C)[C@H](Oc6ccc(C#N)c(Cl)c6)C5(C)C)cn3)C4)c2F)c2cc[nH]c2c1=O [Compound I-222] | 500 to 1500 | < 500 | – | – |
| – | 500 to 2500 | – | 500 to 1500 | < 500 | CCS(=O)(=O)c1ccc(Oc2cccc(CCCC3CCN(c4ncc(C(=O)N[C@H]5C(C)(C)[C@H](Oc6ccc(C#N)c(Cl)c6)C5(C)C)cn4)CC3)c2F)c(-c2cn(C)c(=O)c3[nH]ccc23)c1 [Compound I-245] | > 3000 | < 500 | – | – |
| < 500 | > 2500 | 500 to 1500 | – | – | Cn1cc(-c2cc(C(C)(C)O)ccc2Oc2ccc(OCC3CCN(c4ncc5c(n4)CN([C@H]4C(C)(C)[C@H](Oc6ccc(C#N)c(Cl)c6)C4(C)C)C5=O)CC3)cc2)c2cc[nH]c2c1=O [Compound I-233] | > 3000 | 500 to 1500 | – | – |
| < 500 | > 2500 | < 500 | – | – | CCS(=O)(=O)Nc1ccc(Oc2cccc(N3CC(C4CCN(c5ncc(C(=O)N[C@H]6C(C)(C)[C@H](Oc7ccc(C#N)c(Cl)c7)C6(C)C)cn5)CC4)C3)c2)c(-c2cn(C)c(=O)c3[nH]ccc23)c1 [Compound I-74] | < 500 | < 500 | – | – |
| < 500 | – | < 500 | – | – | CCS(=O)(=O)c1ccc(Oc2cccc(CCCOC3CC4(C3)CN(c3ncc(C(=O)N[C@H]5C(C)(C)[C@H](Oc6ccc(C#N)c(Cl)c6)C5(C)C)cn3)C4)c2F)c(-c2cn(C)c(=O)c3[nH]ccc23)c1 [Compound I-205] | < 500 | < 500 | < 500 | < 500 |
| < 500 | – | < 500 | – | – | CN(CCOc1ccc(Oc2ccc(C(C)(C)O)cc2-c2cn(C)c(=O)c3[nH]ccc23)cc1)c1ncc(C(=O)N[C@H]2C(C)(C)[C@H](Oc3ccc(C#N)c(Cl)c3)C2(C)C)cn1 [Compound I-199] | < 500 | < 500 | < 500 | < 500 |
| – | – | – | < 500 | < 500 | CCS(=O)(=O)c1ccc(Oc2ccc(OCC3CCN(c4ncc(C(=O)N[C@H]5C(C)(C)[C@H](Oc6ccc(C#N)c(Cl)c6)C5(C)C)cn4)CC3)cc2)c(-c2cn(C)c(=O)c3[nH]ccc23)c1 [Compound I-213] | < 500 | < 500 | < 500 | < 500 |
| – | < 50 | – | 500 to 1500 | > 3000 | CC(C)N(CCN(C)C1CCN(c2ncc(C(=O)N[C@H]3C(C)(C)[C@H](Oc4ccc(C#N)c(Cl)c4)C3(C)C)cn2)CC1)c1cccc(Oc2ccc(C(C)(C)O)cc2-c2cn(C)c(=O)c3[nH]ccc23)c1F [Compound I-226] | 500 to 1500 | < 500 | – | – |
| – | < 50 | – | < 500 | < 500 | Cn1cc(-c2cc(C(C)(C)O)ccc2Oc2ccc(F)c(OCCC3CC4(C3)CN(c3ncc(C(=O)N[C@H]5C(C)(C)[C@H](Oc6ccc(C#N)c(Cl)c6)C5(C)C)cn3)C4)c2F)c2cc[nH]c2c1=O [Compound I-225] | < 500 | < 500 | – | – |
| < 500 | 50 to 500 | < 500 | – | – | CCS(=O)(=O)Nc1ccc(Oc2cccc(N(C)CCNC3CCN(c4ncc(C(=O)N[C@H]5C(C)(C)[C@H](Oc6ccc(C#N)c(Cl)c6)C5(C)C)cn4)CC3)c2)c(-c2cn(C)c(=O)c3[nH]ccc23)c1 [Compound I-83] | > 3000 | < 500 | – | – |
| < 500 | 50 to 500 | < 500 | – | – | CC(C)N(CCOc1cccc(Oc2ccc(C(C)(C)O)cc2-c2cn(C)c(=O)c3[nH]ccc23)c1F)C1CCN(c2ncc(C(=O)N[C@H]3C(C)(C)[C@H](Oc4ccc(C#N)c(Cl)c4)C3(C)C)cn2)CC1 [Compound I-224] | < 500 | < 500 | – | – |
| – | – | – | < 500 | < 500 | CCS(=O)(=O)Nc1ccc(Oc2cccc(N3CC(OC4CCN(c5ncc(C(=O)N[C@H]6C(C)(C)[C@H](Oc7ccc(C#N)c(Cl)c7)C6(C)C)cn5)CC4)C3)c2F)c(-c2cn(C)c(=O)c3[nH]ccc23)c1 [Compound I-175] | < 500 | < 500 | < 500 | > 3000 |
| – | 50 to 500 | – | < 500 | < 500 | Cn1cc(-c2cc(C(C)(C)O)ccc2Oc2cccc(OCCN3CC4(C3)CN(c3ncc(C(=O)N[C@H]5C(C)(C)[C@H](Oc6ccc(C#N)c(Cl)c6)C5(C)C)cn3)C4)c2F)c2cc[nH]c2c1=O [Compound I-229] | 500 to 1500 | < 500 | – | – |
| < 500 | – | < 500 | – | – | CCS(=O)(=O)Nc1ccc(Oc2cccc(OCCCC3CCN(c4ncc(C(=O)N[C@H]5C(C)(C)[C@H](Oc6ccc(C#N)c(Cl)c6)C5(C)C)cn4)CC3)c2)c(-c2cn(C)c(=O)c3[nH]ccc23)c1 [Compound I-27] | 500 to 1500 | < 500 | < 500 | > 3000 |
| < 500 | – | < 500 | – | – | CCS(=O)(=O)c1ccc(Oc2cccc(CCCCN3CC4(C3)CN(c3ncc(C(=O)N[C@H]5C(C)(C)[C@H](Oc6ccc(C#N)c(Cl)c6)C5(C)C)cn3)C4)c2F)c(-c2cn(C)c(=O)c3[nH]ccc23)c1 [Compound I-206] | < 500 | < 500 | < 500 | < 500 |
| < 500 | – | < 500 | – | – | Cn1cc(-c2cc(C(C)(C)O)ccc2Oc2ccc(N3CC(CC4CN(c5cnc(C(=O)N[C@H]6C(C)(C)[C@H](Oc7ccc(C#N)c(Cl)c7)C6(C)C)cn5)C4)C3)cc2)c2cc[nH]c2c1=O [Compound I-317] | < 500 | < 500 | < 500 | 500 to 1500 |
| – | – | – | < 500 | < 500 | Cn1cc(-c2cc(C(C)(C)O)ccc2Oc2ccc(N3CC(OC4CN(c5ncc(C(=O)N[C@H]6C(C)(C)[C@H](Oc7ccc(C#N)c(Cl)c7)C6(C)C)cn5)C4)C3)cc2)c2cc[nH]c2c1=O [Compound I-303] | < 500 | < 500 | < 500 | 500 to 1500 |
